Some test systems named below: SK-MEL-5 melanoma; CCRF-CEM leukemia; K-562 leukemia; MOLT-4 leukemia; TK-10 renal; A549 NSCLC; NCI-H522 lung; HS 578T breast; PC-3 prostate; A498 renal; SN12C renal; MCF7 breast; SR leukemia; OVCAR-4 ovarian; U251 CNS; HCT-15 colon; ACHN renal; HOP-92 NSCLC; BT-549 breast.
Holding throughout (assay): NCI tumour cell line growth inhibition, 48 h

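These data come from cells grown in 96-well plates and exposed to compound for 48 hours at five concentrations. TGI marks complete inhibition of growth.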 A value given as a limit tells only on which side of the number the result lay.

In PubChem BioAssay (NCI) one finds TGI data, which are given here for eight compounds.

With `CSC1=N/C(=C\c2ccccc2)C(=O)N1CN1CCOCC1`, the TGI in the assay with SK-MEL-5 melanoma, with CCRF-CEM leukemia, with K-562 leukemia, with MOLT-4 leukemia, in the assay on TK-10 renal and in the assay with A549 NSCLC was above 100 µM each time. Moreover, the TGI in the assay with NCI-H522 lung, in the assay with HS 578T breast, with PC-3 prostate, in the assay on A498 renal, in the assay on SN12C renal and in the assay on MCF7 breast was above 100 µM in each case. Moreover, the TGI with SR leukemia is above 100 µM; in the assay on OVCAR-4 ovarian, 90.8 µM; with U251 CNS it was above 100 µM; in the assay with HCT-15 colon it was above 100 µM; with ACHN renal, above 100 µM; in the assay on HOP-92 NSCLC it was above 100 µM.
For `O=C1CC(NCCCNC2CC(=O)c3c(Br)sc(Br)c32)c2c(Br)sc(Br)c21` (stereo not given), the TGI in the assay with SK-MEL-5 melanoma is 6.04 µM; with BT-549 breast, 4.23 µM; in the assay with MOLT-4 leukemia, 1.21 µM; in the assay with TK-10 renal, 4.61 µM; in the assay with A549 NSCLC, above 100 µM; in the assay on HS 578T breast, above 44.6 µM. Also, the TGI with PC-3 prostate is 3.9 µM; with SN12C renal, 4.77 µM; in the assay with SR leukemia, above 100 µM; in the assay on OVCAR-4 ovarian, 12.7 µM; in the assay with U251 CNS it was 2.82 µM; with HCT-15 colon it was 3.56 µM. Besides, the TGI in the assay on ACHN renal was determined as 3.55 µM.
For `CC(C)[Si](Oc1cc2c3c(ccc2c(O)c1[C@@H](C)CO[Si](C)(C)C(C)(C)C)C(C)(C)CCC3)(C(C)C)C(C)C`, the TGI is 59.8 µM with SK-MEL-5 melanoma; above 100 µM with CCRF-CEM leukemia; above 100 µM with K-562 leukemia; above 100 µM with MOLT-4 leukemia; above 100 µM in the assay with TK-10 renal; above 100 µM in the assay with A549 NSCLC. Besides, the TGI in the assay with NCI-H522 lung, in the assay with HS 578T breast, in the assay on PC-3 prostate, with A498 renal, in the assay on SN12C renal and in the assay with MCF7 breast was above 100 µM throughout. In addition, the TGI in the assay on SR leukemia, with OVCAR-4 ovarian, in the assay with U251 CNS, in the assay on HCT-15 colon, in the assay with ACHN renal and in the assay with HOP-92 NSCLC was above 100 µM in each case.
Regarding `S=C1NCCN1C(=S)NC1CCCCC1`, the TGI with SK-MEL-5 melanoma was 50.7 µM; in the assay with CCRF-CEM leukemia it was above 100 µM; with K-562 leukemia, above 100 µM; with BT-549 breast, 60.9 µM; in the assay with MOLT-4 leukemia, above 100 µM; in the assay with TK-10 renal, 93.1 µM. The TGI was 99.1 µM in the assay with A549 NSCLC; 69 µM with NCI-H522 lung; 99.2 µM in the assay on HS 578T breast; 38.7 µM with A498 renal; above 100 µM in the assay on SN12C renal; above 100 µM with MCF7 breast. Also, the TGI in the assay on SR leukemia was above 100 µM; in the assay with OVCAR-4 ovarian, 45.5 µM; with U251 CNS, above 100 µM; with HCT-15 colon, 89.7 µM; in the assay on ACHN renal, above 100 µM; in the assay on HOP-92 NSCLC, 66.2 µM.
On to `COC(=O)CCN1CCN(CCO)CC1C` (stereo not given), for which the TGI in the assay on SK-MEL-5 melanoma, with CCRF-CEM leukemia, with K-562 leukemia, with MOLT-4 leukemia, in the assay with TK-10 renal and with A549 NSCLC was above 10 µM throughout. The TGI with NCI-H522 lung, in the assay on HS 578T breast, in the assay on PC-3 prostate, with A498 renal, with SN12C renal and with MCF7 breast was above 10 µM each time. For the same compound, the TGI with SR leukemia, with OVCAR-4 ovarian, in the assay on U251 CNS, in the assay on HCT-15 colon and in the assay on ACHN renal was above 10 µM in each case.
Turning to `COC(=N)c1ncn(Cc2ccccc2)c1N`, the TGI in the assay on SK-MEL-5 melanoma, in the assay with CCRF-CEM leukemia, in the assay with K-562 leukemia, in the assay with TK-10 renal, in the assay on A549 NSCLC and with NCI-H522 lung was above 100 µM throughout. Further, the TGI with HS 578T breast, with PC-3 prostate, in the assay with A498 renal, in the assay with SN12C renal, in the assay on MCF7 breast and with OVCAR-4 ovarian was above 100 µM throughout. Besides, the TGI in the assay on U251 CNS, in the assay with HCT-15 colon, in the assay on ACHN renal and in the assay on HOP-92 NSCLC was above 100 µM in each case.
Regarding `COC(=O)C(=O)c1cc2ccccc2n1S(=O)(=O)c1ccccc1`, the TGI in the assay on SK-MEL-5 melanoma, in the assay with CCRF-CEM leukemia, in the assay with K-562 leukemia, in the assay on BT-549 breast, with MOLT-4 leukemia and in the assay on TK-10 renal was above 100 µM throughout. In addition, the TGI in the assay with A549 NSCLC, in the assay on NCI-H522 lung, with PC-3 prostate, in the assay with A498 renal, in the assay on SN12C renal and with MCF7 breast was above 100 µM each time. Moreover, the TGI in the assay on SR leukemia, in the assay on OVCAR-4 ovarian, with U251 CNS, with HCT-15 colon, in the assay with ACHN renal and with HOP-92 NSCLC was above 100 µM each time.
For the compound `Cc1ccccc1C(=O)NC(O)(C(F)(F)F)C(F)(F)F`, the TGI with SK-MEL-5 melanoma, in the assay on CCRF-CEM leukemia, in the assay with K-562 leukemia, with MOLT-4 leukemia, in the assay with TK-10 renal and in the assay on A549 NSCLC was above 100 µM each time. In addition, the TGI with NCI-H522 lung, with HS 578T breast, in the assay on PC-3 prostate, in the assay on A498 renal, with SN12C renal and in the assay on MCF7 breast was above 100 µM throughout. Also, the TGI in the assay with OVCAR-4 ovarian, in the assay on U251 CNS, with HCT-15 colon, in the assay on ACHN renal and with HOP-92 NSCLC was above 100 µM each time.
